Experimental data published in patent publication US11707440B2 (priority 2017, dated 2023).

Test: Pharmacokinetics of intranasal esketamine in healthy subjects (Example 9)
Conditions: healthy subjects; 28, 56 and 84 mg
Description: Pharmacokinetic blood samples for measurement of esketamine and noresketamine concentrations in plasma were collected from predose until up to 24 hours after each intranasal esketamine regimen on Day 1 of each period.
Blood samples (4 mL each) for determination of esketamine and noresketamine plasma concentrations were collected into the appropriate collection tube (e.g., Vacutainer®) at timepoints 0.00, 0.12, 0.20, 0.37, 0.53, 0.67, 0.83, 1.00, 1.25, 1.50, 2.00, 3.00, 4.00, 6.00, 9.00, 12.00, 18.00, and 24.00 h. The total amount of blood to be drawn for clinical laboratory tests and PK evaluations is approximately 327 mL.
Plasma samples were analyzed for esketamine and noresketamine concentrations using the validated, specific and sensitive liquid chromatography coupled to tandem mass spectrometry (LC-MS/MS) achiral method of Example 8.
Serial PK blood samples (4 mL each) were collected for a 24-hour period from each subject (Periods 1, 2, and 3). […] Statistical Methods 1.6.4.1. Sample Size
The following key parameters of esketamine and noresketamine in plasma were calculated using noncompartmental methods and actual sampling times: Cmax, tmax, AUClast, AUC∞, t1/2,λ, and λz.

CN[C@]1(c2ccccc2Cl)CCCCC1=O [esketamine, (S)-2-(2-chlorophenyl)-2-(methylamino)cyclohexanone]
AUC (AUClast and AUC∞) variability, range: 25.0% to 30.4 | Cmax variability (percent coefficient of variation), range across treatment groups: 35.7% to 36.7
